{
  "source": "paper PMC6227840",
  "about": "(Open Medicine, 2018)",
  "key": {"[1]": {"conditions": "cited from earlier work"}, "[2]": {"conditions": "cited from earlier work", "remark": "listed apart in the source"}, "[3]": {"assay": "Population pharmacokinetic", "conditions": "normal renal function"}},
  "note": "Like-named read-outs stand apart in the source and are kept apart here.",
  "data": [
    {"smiles": "CN[C@H](CC(C)C)C(=O)N[C@H]1C(=O)N[C@@H](CC(N)=O)C(=O)N[C@H]2C(=O)N[C@H]3C(=O)N[C@H](C(=O)N[C@H](C(=O)O)c4cc(O)cc(O)c4-c4cc3ccc4O)[C@H](O)c3ccc(c(Cl)c3)Oc3cc2cc(c3O[C@@H]2O[C@H](CO)[C@@H](O)[C@H](O)[C@H]2O[C@H]2C[C@](C)(N)[C@H](O)[C@H](C)O2)Oc2ccc(cc2Cl)[C@H]1O", "note": "[vancomycin, Vancomycin]", "values": [
      {"measurement": "central volume of distribution", "setting": "base model, impaired renal function, n = 78", "value": 22.7, "unit": "L"},
      {"measurement": "central volume of distribution, renal impairment group versus normal group", "setting": "base models, 22.7L vs. 7.12L", "value": 3, "unit": "times"},
      {"measurement": "Clearance of vancomycin – CL, Bootstrap analysis Estimate", "setting": "final model parameter, impaired renal function, 200 bootstrap runs", "value": 0.281, "unit": "L/h"},
      {"measurement": "Central volume of distribution – V1, NONMEM Estimate", "setting": "final model, impaired renal function", "value": 29.9, "unit": "L"},
      {"measurement": "Central volume of distribution – V1, Bootstrap analysis Estimate", "setting": "final model, impaired renal function, 200 bootstrap runs", "value": 30.7, "unit": "L"},
      {"measurement": "apparent volume of distribution", "setting": "[1]; after intravenous administration, distributed in extracellular space", "value": "0.4 to 1", "unit": "L/kg"},
      {"measurement": "clearance", "setting": "[1]", "value": "about 2.64 l/h"},
      {"measurement": "interstitial fluid concentration in brain tissue", "setting": "[2]; healthy adults", "value": "0 to 3.45", "unit": "mg/L"},
      {"measurement": "interstitial fluid concentration in the brain", "setting": "[2]; patients with meningitis", "value": "6.4 to 11.1", "unit": "mg/L"},
      {"measurement": "central volume of distribution", "setting": "[3]; base model, n = 32", "value": 7.12, "unit": "L"},
      {"measurement": "Clearance of vancomycin – CL, Bootstrap analysis Estimate", "setting": "[3]; final model parameter, 200 bootstrap runs", "value": 0.0754, "unit": "L/h"},
      {"measurement": "Central volume of distribution – V1, NONMEM Estimate", "setting": "[3]; final model", "value": 7.47, "unit": "L"},
      {"measurement": "Central volume of distribution – V1, Bootstrap analysis Estimate", "setting": "[3]; final model, 200 bootstrap runs", "value": 7.55, "unit": "L"}
    ]}
  ]
}
